{"source": "patent US20260028354A1", "about": "“TETRAHYDRONAPHTHALENE DERIVATIVES AS ESTROGEN RECEPTOR DEGRADERS” (REGENT OF THE UNIVERSITY OF MICHIGAN, priority 2022, published 2026)"}
{"assay": "Western blot analysis for \"B\" compounds", "assay_type": "cell-based", "settings": "read-out: Traditional Western Degradation Potency (DC50)", "procedure": "Western Blot Analysis. Western blot analysis was performed essentially as described previously. The cells treated with indicated compounds were lysed in Radioimmunoprecipitation Assay Protein Lysis and Extraction Buffer (25 mmol/I. Tris.HCl, pH 7.6, 150 mmol/L, NaCl, 1% Nonidet P-40, 1% sodium deoxycholate, and 0.1% sodium dodecyl sulfate) containing proteinase inhibitor cocktail (Roche Diagnostics, Mannheim, Germany). Equal amounts of total protein were electrophoresed through 10% SDS-polyacrylamide gels after determination of protein concentration by BCA assay (Fisher Scientific, Pittsburgh, PA), The separated protein bands were transferred onto PVDF membranes (GE Healthcare Life Sciences, Marlborough, MA) and blotted against different antibodies, as indicated. The blots were scanned, and the band intensities were quantified using GelQuant.NET software provided by biochemlabsolutions.com. The relative mean intensity of target proteins was expressed after normalization to the intensity of glyceraldehyde-3-phosphate dehydrogenase bands.", "units": {"DC50": "µM"}}
{"smiles": "O=C1CCC(N2C(=O)c3cc4c(cc3C2=O)CN(C2CN(C(=O)C3CCN(c5ccc([C@@H]6c7ccc(O)cc7CC[C@@H]6c6ccccc6)cc5)CC3)C2)C4)C(=O)N1", "note": "(mixture of isomers) [Compound B9, 2-(2,6-dioxopiperidin-3-yl)-6-(1-(1-(4-((1R,2S)-6-hydroxy-2-phenyl-1,2,3,4-tetrahydronaphthalen-1-yl)phenyl)piperidine-4-carbonyl)azetidin-3-yl)-6,7-dihydropyrrolo[3,4-f]isoindole-1,3(2H,5H)-dione]", "DC50": "0.01 to 0.1"}
{"smiles": "O=C1CCC(N2C(=O)c3cc4c(cc3C2=O)CN(CC2CN(C(=O)C3CCN(c5ccc([C@@H]6c7ccc(O)cc7CC[C@@H]6c6ccccc6)cc5)CC3)C2)C4)C(=O)N1", "note": "(mixture of isomers) [Compound B10, 2-(2,6-dioxopiperidin-3-yl)-6-((1-(1-(4-((1R,2S)-6-hydroxy-2-phenyl-1,2,3,4-tetrahydronaphthalen-1-yl)phenyl)piperidine-4-carbonyl)azetidin-3-yl)methyl)-6,7-dihydropyrrolo[3,4-f]isoindole-1,3(2H,5H)-dione]", "DC50": "0.01 to 0.1"}
{"smiles": "O=C1CCC(N2C(=O)c3cc4c(cc3C2=O)CN(CC(=O)N2CC3(CCN(c5ccc([C@@H]6c7ccc(O)cc7CC[C@@H]6c6ccc(F)cc6)cc5)CC3)C2)C4)C(=O)N1", "note": "(mixture of isomers) [Compound B11, 2-(2,6-dioxopiperidin-3-yl)-6-(2-(7-(4-((1R,2S)-2-(4-fluorophenyl)-6-hydroxy-1,2,3,4-tetrahydronaphthalen-1-yl)phenyl)-2,7-diazaspiro[3.5]nonan-2-yl)-2-oxoethyl)-6,7-dihydropyrrolo[3,4-f]isoindole-1,3(2H,5H)-dione]", "DC50": "< 0.01"}
{"smiles": "O=C1CCC(N2C(=O)c3cc4c(cc3C2=O)CN(CC(=O)N2CCCC(Oc3ccc([C@@H]5c6ccc(O)cc6CC[C@@H]5c5ccccc5)cc3)C2)C4)C(=O)N1", "note": "(mixture of isomers) [Compound B13, 2-(2,6-dioxopiperidin-3-yl)-6-(2-(3-(4-((1R,2S)-6-hydroxy-2-phenyl-1,2,3,4-tetrahydronaphthalen-1-yl)phenoxy)piperidin-1-yl)-2-oxoethyl)-6,7-dihydropyrrolo[3,4-f]isoindole-1,3(2H,5H)-dione]", "DC50": "> 0.1"}
{"smiles": "O=C1CCC(N2C(=O)c3cc4c(cc3C2=O)CN(C2CC(C(=O)N3CCCC(Oc5ccc([C@@H]6c7ccc(O)cc7CC[C@@H]6c6ccccc6)cc5)C3)C2)C4)C(=O)N1", "note": "(mixture of isomers) [Compound B14, 2-(2,6-dioxopiperidin-3-yl)-6-(3-(3-(4-((1R,2S)-6-hydroxy-2-phenyl-1,2,3,4-tetrahydronaphthalen-1-yl)phenoxy)piperidine-1-carbonyl)cyclobutyl)-6,7-dihydropyrrolo[3,4-f]isoindole-1,3(2H,5H)-dione]", "DC50": "> 0.1"}
{"smiles": "O=C1CCC(N2C(=O)c3cc4c(cc3C2=O)CN(C2CCC(C(=O)N3CCCC(Oc5ccc([C@@H]6c7ccc(O)cc7CC[C@@H]6c6ccccc6)cc5)C3)CC2)C4)C(=O)N1", "note": "(mixture of isomers) [Compound B15, 2-(2,6-dioxopiperidin-3-yl)-6-(4-(3-(4-((1R,2S)-6-hydroxy-2-phenyl-1,2,3,4-tetrahydronaphthalen-1-yl)phenoxy)piperidine-1-carbonyl)cyclohexyl)-6,7-dihydropyrrolo[3,4-f]isoindole-1,3(2H,5H)-dione]", "DC50": "0.01 to 0.1"}
{"smiles": "O=C1CCC(N2C(=O)c3cc4c(cc3C2=O)CN(C(=O)CN2CC3(CCN(c5ccc([C@@H]6c7ccc(O)cc7CC[C@@H]6c6ccccc6)cc5)CC3)C2)C4)C(=O)N1", "note": "(mixture of isomers) [Compound B17, 2-(2,6-dioxopiperidin-3-yl)-6-(2-(7-(4-((1R,2S)-6-hydroxy-2-phenyl-1,2,3,4-tetrahydronaphthalen-1-yl)phenyl)-2,7-diazaspiro[3.5]nonan-2-yl)acetyl)-6,7-dihydropyrrolo[3,4-f]isoindole-1,3(2H,5H)-dione]", "DC50": "0.01 to 0.1"}
{"smiles": "O=C1CCC(N2C(=O)c3cc4c(cc3C2=O)CN(C(=O)CN2CCC3(CC2)CCN(c2ccc([C@@H]5c6ccc(O)cc6CC[C@@H]5c5ccccc5)cc2)CC3)C4)C(=O)N1", "note": "(mixture of isomers) [Compound B18, 2-(2,6-dioxopiperidin-3-yl)-6-(2-(9-(4-((1R,2S)-6-hydroxy-2-phenyl-1,2,3,4-tetrahydronaphthalen-1-yl)phenyl)-3,9-diazaspiro[5.5]undecan-3-yl)acetyl)-6,7-dihydropyrrolo[3,4-f]isoindole-1,3(2H,5H)-dione]", "DC50": "0.01 to 0.1"}
{"smiles": "O=C1CCC(N2C(=O)c3cc4c(cc3C2=O)CN(C(=O)CN2CC3(CCN(c5ccc([C@@H]6c7ccc(O)cc7CC[C@@H]6c6ccc(F)cc6)cc5)CC3)C2)C4)C(=O)N1", "note": "(mixture of isomers) [Compound B19, 2-(2,6-dioxopiperidin-3-yl)-6-(2-(7-(4-((1R,2S)-2-(4-fluorophenyl)-6-hydroxy-1,2,3,4-tetrahydronaphthalen-1-yl)phenyl)-2,7-diazaspiro[3.5]nonan-2-yl)acetyl)-6,7-dihydropyrrolo[3,4-f]isoindole-1,3(2H,5H)-dione]", "DC50": "0.01 to 0.1"}
{"smiles": "O=C1CCC(N2C(=O)c3cc4c(cc3C2=O)CN(CC(=O)N2CCC3(CC2)CCN(c2ccc([C@@H]5c6ccc(O)cc6CC[C@@H]5c5ccccc5)cc2)C3)C4)C(=O)N1", "note": "(mixture of isomers) [Compound B20, 2-(2,6-dioxopiperidin-3-yl)-6-(2-(2-(4-((1R,2S)-6-hydroxy-2-phenyl-1,2,3,4-tetrahydronaphthalen-1-yl)phenyl)-2,8-diazaspiro[4.5]decan-8-yl)-2-oxoethyl)-6,7-dihydropyrrolo[3,4-f]isoindole-1,3(2H,5H)-dione]", "DC50": "0.01 to 0.1"}
{"smiles": "O=C1CCC(N2C(=O)c3cc4c(cc3C2=O)CN(C(=O)CN2CCC3(CCN(c5ccc([C@@H]6c7ccc(O)cc7CC[C@@H]6c6ccccc6)cc5)CC3)C2)C4)C(=O)N1", "note": "(mixture of isomers) [Compound B21, 2-(2,6-dioxopiperidin-3-yl)-6-(2-(8-(4-((1R,2S)-6-hydroxy-2-phenyl-1,2,3,4-tetrahydronaphthalen-1-yl)phenyl)-2,8-diazaspiro[4.5]decan-2-yl)acetyl)-6,7-dihydropyrrolo[3,4-f]isoindole-1,3(2H,5H)-dione]", "DC50": "> 0.1"}
{"smiles": "O=C1CCC(N2C(=O)c3cc4c(cc3C2=O)CN(C(=O)CN2CCC3(CC2)CCN(c2ccc([C@@H]5c6ccc(O)cc6CC[C@@H]5c5ccccc5)cc2)C3)C4)C(=O)N1", "note": "(mixture of isomers) [Compound B22, 2-(2,6-dioxopiperidin-3-yl)-6-(2-(2-(4-((1R,2S)-6-hydroxy-2-phenyl-1,2,3,4-tetrahydronaphthalen-1-yl)phenyl)-2,8-diazaspiro[4.5]decan-8-yl)acetyl)-6,7-dihydropyrrolo[3,4-f]isoindole-1,3(2H,5H)-dione]", "DC50": "> 0.1"}
{"smiles": "C[C@@H]1CC2(CCN(c3ccc([C@@H]4c5ccc(O)cc5CC[C@@H]4c4ccc(F)cc4)cc3)CC2)CN1C(=O)CN1Cc2cc3c(cc2C1)C(=O)N(C1CCC(=O)NC1=O)C3=O", "note": "(mixture of isomers) [Compound B26, 2-(2,6-dioxopiperidin-3-yl)-6-(2-((R)-8-(4-((1R,2S)-2-(4-fluorophenyl)-6-hydroxy-1,2,3,4-tetrahydronaphthalen-1-yl)phenyl)-3-methyl-2,8-diazaspiro[4.5]decan-2-yl)-2-oxoethyl)-6,7-dihydropyrrolo[3,4-f]isoindole-1,3(2H,5H)-dione]", "DC50": "0.01 to 0.1"}
{"smiles": "O=C1CCC(N2C(=O)c3cc4c(cc3C2=O)CN(C(=O)CN2CCC3(CC2)CN(c2ccc([C@@H]5c6ccc(O)cc6CC[C@@H]5c5ccccc5)cc2)C3)C4)C(=O)N1", "note": "(mixture of isomers) [Compound B29, 2-(2,6-dioxopiperidin-3-yl)-6-(2-(2-(4-((1R,2S)-6-hydroxy-2-phenyl-1,2,3,4-tetrahydronaphthalen-1-yl)phenyl)-2,7-diazaspiro[3.5]nonan-7-yl)acetyl)-6,7-dihydropyrrolo[3,4-f]isoindole-1,3(2H,5H)-dione]", "DC50": "> 0.1"}
{"smiles": "O=C1CCC(N2C(=O)c3cc4c(cc3C2=O)CN(C(=O)CN2CCC3(CC2)CCN(c2ccc([C@@H]5c6ccc(O)cc6CC[C@@H]5c5ccc(F)cc5)cc2)C3)C4)C(=O)N1", "note": "(mixture of isomers) [Compound B31, 2-(2,6-dioxopiperidin-3-yl)-6-(2-(2-(4-((1R,2S)-2-(4-fluorophenyl)-6-hydroxy-1,2,3,4-tetrahydronaphthalen-1-yl)phenyl)-2,8-diazaspiro[4.5]decan-8-yl)acetyl)-6,7-dihydropyrrolo[3,4-f]isoindole-1,3(2H,5H)-dione]", "DC50": "> 0.1"}
{"smiles": "O=C1CCC(N2C(=O)c3cc4c(cc3C2=O)CN(C(=O)CN2CCC3(CC2)CCN(c2ccc([C@@H]5c6ccc(O)cc6CC[C@@H]5c5ccccc5)c(F)c2)C3)C4)C(=O)N1", "note": "(mixture of isomers) [Compound B32, 2-(2,6-dioxopiperidin-3-yl)-6-(2-(2-(3-fluoro-4-((1S,2S)-6-hydroxy-2-phenyl-1,2,3,4-tetrahydronaphthalen-1-yl)phenyl)-2,8-diazaspiro[4.5]decan-8-yl)acetyl)-6,7-dihydropyrrolo[3,4-f]isoindole-1,3(2H,5H)-dione]", "DC50": "> 0.1"}
{"smiles": "O=C1CCC(N2C(=O)c3cc4c(cc3C2=O)CN(C(=O)CN2CCC3(CC2)CCN(c2ccc([C@@H]5c6ccc(O)cc6CC[C@@H]5c5ccccc5)cc2F)C3)C4)C(=O)N1", "note": "(mixture of isomers) [Compound B33, 2-(2,6-dioxopiperidin-3-yl)-6-(2-(2-(2-fluoro-4-((1R,2S)-6-hydroxy-2-phenyl-1,2,3,4-tetrahydronaphthalen-1-yl)phenyl)-2,8-diazaspiro[4.5]decan-8-yl)acetyl)-6,7-dihydropyrrolo[3,4-f]isoindole-1,3(2H,5H)-dione]", "DC50": "> 0.1"}
